Data published in patent US20070042448A1, “Use of enzymes from Helicobacter pylori as therapeutical targets” (priority 2005, published 2007).
Converted amounts (≈) assume the structure as drawn. Read-outs that look alike come from different tables or passages of the source. Positions of bridges follow the written chain, without caps; N, C: chain ends. Non-standard residues stand in square brackets, D forms with d. Residues, ends and D or L forms follow the SMILES beside them. *: point of attachment. Ileψ(thiazoline)Cys = CC[C@H](C)[C@H](N)C1=N[C@H](C(=O)*)CS1; dOrn = NCCC[C@@H](N)C(=O)O

Key:
H. pylori strain 26695 [1] = assay: Minimum inhibitory concentration (MIC) on plates, parental strain; format: cell-based, Helicobacter pylori
From the text: (§1) Minimal Inhibitory Concentration (MIC). To determine the MIC for amoxicillin, suspensions of H. pylori estimated to contain […] bacteria/ml (OD600 nm of 0.1) were serially diluted and grown on plates containing various concentrations of amoxicillin. The MIC was defined as the amoxicillin concentration leading to a decrease of 3 log of CFU/ml as compared to growth without amoxicillin.
(§2) To determine the MIC of different antibiotics, suspensions of H. pylori estimated to contain 10^8 bacteria/ml (OD600 nm of 0.1) were serially diluted and grown on plates containing various concentrations of amoxicillin. The MIC was defined as the minimal concentration leading to a decrease of 3 log of CFU/ml as compared to growth without antibiotic. Minimum bactericidal concentration (MBC) for amoxicillin was done as follow. Bacteria were grown in increasing concentrations of amoxicillin in liquid culture and OD600 nm was monitored. After 18 hours, CFU/ml counts were determined for each amoxicillin concentration. MBC was defined as the concentration leading to a 3 log decrease of CFU/ml as compared as growth without amoxicillin.

[2] = tested on: H. pylori 26695 amiA mutant; assay: Minimum inhibitory concentration (MIC) on plates, amiA mutant; format: cell-based, Helicobacter pylori
From the text: as §1, §2

human Nod2 = molecular target: T1, human Nod2 (Homo sapiens, UniProt Q9HC29); assay: Nod2-dependent NF-κB luciferase activation in transfected HEK293T cells; format: cell-based; details: HEK293T cells transfected with hNod2 and luciferase reporter; FIG. 4D
T1 construct: host or cells: HEK293T
T1 sequence (Q9HC29 whole entry): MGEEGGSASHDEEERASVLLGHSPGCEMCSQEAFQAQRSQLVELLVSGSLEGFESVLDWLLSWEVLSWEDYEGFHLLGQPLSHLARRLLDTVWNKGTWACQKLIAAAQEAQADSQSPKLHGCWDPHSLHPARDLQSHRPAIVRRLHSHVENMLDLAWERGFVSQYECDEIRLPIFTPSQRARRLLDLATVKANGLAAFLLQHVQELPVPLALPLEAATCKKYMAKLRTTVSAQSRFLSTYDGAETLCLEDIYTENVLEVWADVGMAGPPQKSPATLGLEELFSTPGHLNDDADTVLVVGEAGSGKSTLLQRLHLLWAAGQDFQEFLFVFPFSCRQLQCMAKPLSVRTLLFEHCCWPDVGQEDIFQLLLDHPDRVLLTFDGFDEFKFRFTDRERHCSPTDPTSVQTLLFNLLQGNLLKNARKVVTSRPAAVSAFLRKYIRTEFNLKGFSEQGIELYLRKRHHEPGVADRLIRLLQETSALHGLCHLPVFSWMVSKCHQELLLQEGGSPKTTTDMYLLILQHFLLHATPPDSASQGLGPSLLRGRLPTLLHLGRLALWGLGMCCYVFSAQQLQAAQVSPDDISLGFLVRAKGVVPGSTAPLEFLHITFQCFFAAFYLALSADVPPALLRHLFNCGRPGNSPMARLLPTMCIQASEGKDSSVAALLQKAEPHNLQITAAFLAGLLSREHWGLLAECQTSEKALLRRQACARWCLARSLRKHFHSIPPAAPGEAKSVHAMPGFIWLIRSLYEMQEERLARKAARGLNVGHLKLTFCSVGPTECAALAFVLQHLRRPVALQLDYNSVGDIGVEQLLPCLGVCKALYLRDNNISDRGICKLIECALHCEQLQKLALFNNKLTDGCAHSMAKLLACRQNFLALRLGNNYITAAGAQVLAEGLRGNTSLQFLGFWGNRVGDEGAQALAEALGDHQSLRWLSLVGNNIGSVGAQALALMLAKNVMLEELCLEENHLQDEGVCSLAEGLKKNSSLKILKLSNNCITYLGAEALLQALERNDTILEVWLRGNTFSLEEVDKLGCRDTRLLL
From the text: Expression Plasmids, Transient Transfections and NF-κB Activation Assays. The expression plasmid for FLAG-tagged hNod1 was from Gabriel Nuñez (University of Michigan Medical School, Ann Arbor, Mich.) and has been described previously. The expression plasmid for hNod2 was from Gilles Thomas (Foundation Jean Dausset/CEPH, Paris, France). HEK293T cells were used for transfections as described previously. Synergistic activation of NF-κB by PGs, muramyl peptides, and related compounds in cells over-expressing Nod1 or Nod2 was studied as described by Inohara et al.. Briefly, HEK293T cells were transfected overnight with 10 ng of hNod1 or 30 ng of hNod2 plus 75 ng of Ig luciferase reporter plasmid. PG samples (0.1 μg/ml) were digested with 0.25 μg/μl mutanolysin. At the same time, 0.3 μg of PG preparations or 10 pmol of muramyl-peptides were added to the cell culture medium, and synergistic NF-κB-dependent luciferase activation was measured after 24 h of co-incubation. NF-κB-dependent luciferase assays were performed in duplicate, and data reported represent at least three independent experiments. Data was standardized with positive controls: M-dipeptide for hNod2 and M-tripeptide for hNod1. hNod1 and hNod2 were activated with H. pylori PG (0.3 μg/ml) digested with M1 or Slt70 as previously described.

[3] = tested on: H. pylori 26695 amiA− complemented; assay: Minimum inhibitory concentration (MIC) on plates, complemented amiA mutant; format: cell-based; details: Helicobacter pylori, read-out: MIC (μg/ml of amoxicillin)
Procedure: as §2

H. pylori strain 26695 [4] = assay: Minimum bactericidal concentration (MBC) in liquid culture, parental strain; format: cell-based, Helicobacter pylori
Procedure: as §2

[5] = tested on: H. pylori 26695 amiA mutant; assay: Minimum bactericidal concentration (MBC) in liquid culture, amiA mutant; format: cell-based, Helicobacter pylori; details: 18 hours, maximum concentration tested 32 μg/ml
Procedure: as §2

[6] = tested on: H. pylori 26695 amiA− complemented; assay: Minimum bactericidal concentration (MBC) in liquid culture, complemented amiA mutant; format: cell-based, Helicobacter pylori
Procedure: as §2

H. pylori strain 26695 [7] = assay: Morphological transition into coccoid forms after amoxicillin (scanning electron microscopy), parental strain; format: cell-based, Helicobacter pylori; details: 3-4 h exposure to amoxicillin (10 μg/ml) after 18 h of growth without antibiotic
Procedure: (§3) Some stress signals, including amoxicillin treatment, can induce the morphological transition into coccoid forms. The inventors investigated the response of the ami A mutant to amoxicillin. First the inventors determined the MIC of amoxicillin: it was identical for the ami A mutant and the parental strain 26695 (0.06 μg/ml). After overnight culture, 10 μg/ml of amoxicillin was added to the media and after three hours of antibiotic treatment bacteria were observed by scanning electron microscopy. […] Thus, AmiA is required both for PG modifications and morphological transition.
(§4) For scanning electron microscopy (SEM), samples were washed in PBS, prefixed in 2.5% glutaraldehyde in 0.1M cacodylate buffer for 30 minutes and then rinsed in 0.2M cacodylate buffer. After post-fixation in 1% osmium tetraoxide (in 0.2M cacodylate buffer), bacteria were dehydrated in a series of ethanol concentrations. Specimens were critical-point dried using carbon dioxide, then coated with gold and examined with a JEOL JSM-6700F SEM.

[8] = tested on: H. pylori 26695 amiA mutant; assay: Morphological transition into coccoid forms after amoxicillin (scanning electron microscopy), amiA mutant; format: cell-based, Helicobacter pylori
Procedure: as §3, §4

[9] = Helicobacter pylori, other antibiotics, read-out: MIC

CC[C@H](C)[C@H](N)C1=N[C@H](C(=O)N[C@@H](CC(C)C)C(=O)N[C@H](CCC(=O)O)C(=O)N[C@H](C(=O)N[C@H]2CCCCNC(=O)[C@H](CC(N)=O)NC(=O)[C@@H](CC(=O)O)NC(=O)[C@H](Cc3cnc[nH]3)NC(=O)[C@@H](Cc3ccccc3)NC(=O)[C@H]([C@@H](C)CC)NC(=O)[C@@H](CCCN)NC2=O)[C@@H](C)CC)CS1 [Bacitracin] ({Ileψ(thiazoline)Cys}-L[dE]IK[dOrn]I[dF]H[dD]N; lactam 4-C)
MIC (H. pylori strain 26695 [1]; [9]): > 1000 µg/mL | MIC ([2]; Helicobacter pylori): > 1000 µg/mL

CC(=O)NC1C(OC2C(CO)OC(O)C(NC(C)=O)C2OC(C)C(=O)NC(C)C(=O)NC(CCC(=O)O)C(=O)O)OC(CO)C(O)C1O [GM-dipeptide, N-acetyl-D-glucosminyl-β(1,4)-N-acetylmuramyl-L-Ala-D-Glu]
Nod2-dependent activation of NF-κB (human Nod2): detected via Nod2 in a dose dependent manner

Cc1ncc([N+](=O)[O-])n1CCO [Metronidazole]
MIC (H. pylori strain 26695 [1]; [9]): 1 µg/mL (≈ 5.84 µM) | MIC ([2]; Helicobacter pylori): 1 µg/mL (≈ 5.84 µM)

CCn1cc(C(=O)O)c(=O)c2ccc(C)nc21 [Nalidixic acid]
MIC (H. pylori strain 26695 [1]; [9]): 30 µg/mL (≈ 129 µM) | MIC ([2]; Helicobacter pylori): 30 µg/mL (≈ 129 µM)

[H]/N=C(/N)N[C@H]1[C@H](O)[C@@H](O)[C@H](O[C@@H]2O[C@@H](C)[C@](O)(C=O)[C@H]2O[C@@H]2O[C@@H](CO)[C@H](O)[C@@H](O)[C@@H]2NC)[C@@H](N/C(N)=N\[H])[C@@H]1O [Streptomycin]
MIC (H. pylori strain 26695 [1]; [9]): 1 µg/mL (≈ 1.72 µM) | MIC ([2]; Helicobacter pylori): 1 µg/mL (≈ 1.72 µM)

COc1cc(Cc2cnc(N)nc2N)cc(OC)c1OC [Trimethroprime]
MIC (H. pylori strain 26695 [1]; other antibiotics): >100 µg/mL | MIC ([2]; 26695 amiA mutant, other antibiotics): >100 µg/mL

CN[C@H](CC(C)C)C(=O)N[C@H]1C(=O)N[C@@H](CC(N)=O)C(=O)N[C@H]2C(=O)N[C@H]3C(=O)N[C@H](C(=O)N[C@H](C(=O)O)c4cc(O)cc(O)c4-c4cc3ccc4O)[C@H](O)c3ccc(c(Cl)c3)Oc3cc2cc(c3O[C@@H]2O[C@H](CO)[C@@H](O)[C@H](O)[C@H]2O[C@H]2C[C@](C)(N)[C@H](O)[C@H](C)O2)Oc2ccc(cc2Cl)[C@H]1O [Vancomycin]
MIC (H. pylori strain 26695 [1]; [9]): > 1000 µg/mL | MIC ([2]; Helicobacter pylori): > 1000 µg/mL

CC1(C)S[C@@H]2[C@H](NC(=O)[C@H](N)c3ccc(O)cc3)C(=O)N2[C@H]1C(=O)O [amoxicillin]
MIC (H. pylori strain 26695 [1]; Helicobacter pylori, 3 log decrease of CFU/ml, read-out: MIC (μg/ml of amoxicillin)): 0.06 µg/mL | MIC ([2]; Helicobacter pylori, read-out: MIC (μg/ml of amoxicillin)): 0.06 µg/mL | MIC [3]: 0.125 µg/mL | Ratio MBC/MIC (H. pylori strain 26695 [4]): 1 | MCB (μg/ml of amoxicillin) (H. pylori strain 26695 [4]; liquid culture, 18 hours, 3 log decrease of CFU/ml): 0.06 µg/mL | MCB (μg/ml of amoxicillin) [5]: >32 µg/mL | Ratio MBC/MIC [6]: 2 | MCB (μg/ml of amoxicillin) ([6]; liquid culture, 18 hours): 0.250 µg/mL | % of coccoids (includes U and donut forms) (H. pylori strain 26695 [7]): 56.64% | Morphology of amiA mutant after amoxicillin ([8]; 10 μg/ml amoxicillin, three hours, after overnight culture, scanning electron microscopy): formed chains of spherical bacteria | % of coccoids (includes U and donut forms) ([8]; 26695 amiA−, 3-4 h exposure to amoxicillin (10 μg/ml) after 18 h of growth without antibiotic): 32.60% | Coccoid formation of amiA mutant after amoxicillin ([8]; exposure to 100 times its MIC): still induced coccoid formation
